Experimental data as given in patent US9783527B2, “Indazole ureas and method of use” (AbbVie Inc., priority 2014, dated 2017).

Assays:
human Nav1.7 = human Nav1.7 (Homo sapiens (Human), UniProt Q15858); assay: FRET-based membrane potential assay, recombinant human sodium channel Nav1.7; assay type: cell-based; conditions: HEK293 cells stably expressing recombinant human Nav1.7; depolarization with veratridine (EC80) + scorpion venom
In short: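 IC50 derived by four-parameter Hill fit of percent inhibition of depolarization, measured as peak F440-480/F565-625 ratio over baseline. Stable human Nav1.7 HEK293 cells, dye-loaded with CC2-DMPE and DiSBAC2(3)/VABSC-1 at room temperature, received compound 3 min ahead of veratridine (EC80) plus scorpion venom.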

human Nav1.8 = human Nav1.8 (Homo sapiens (Human), UniProt Q9Y5Y9); assay: FRET-based membrane potential assay, recombinant human sodium channel Nav1.8; assay type: cell-based; conditions: HEK293 cells stably expressing recombinant human Nav1.8; depolarization with veratridine (EC80) + scorpion venom
Method: FRET-Based Membrane Potential Assays.
Recombinant, Human Sodium Channel, Nav1.8.
Two days prior to the experiment, frozen HEK293 cells stably expressing recombinant human Nav1.8 (Essen, Ann Arbor, Mich.) were quickly thawed and plated at 22,500 cells/well in growth medium [MEM (Invitrogen #11095) with 10% FBS (Invitrogen #10082), 1 mM sodium pyruvate (Invitrogen, #C11360), 10 units/mL penicillin/10 U/mL streptomycin/29.2 μg/mL glutamine ((PSG 1%, Invitrogen #10378), 400 μg/mL zeocin (Invitrogen #R250) in black-walled, clear-bottom 384-well poly-D-lysine-coated assay plates (Greiner Bio-One, Frickenhausen, Germany) and incubated in a humidified 5% CO2 incubator at 37° C. On the day of the assay, medium was removed by aspiration, and cells were washed with assay buffer [HBSS (Invitrogen, Carlsbad, Calif.) containing 20 mM HEPES (Invitrogen, Carlsbad, Calif.)]. After washing, 30 μL assay buffer containing the fluorescent voltage-sensor probe CC2-DMPE (Invitrogen, Carlsbad, Calif.) at 20 μM and 0.01% pluronic F-127 (Invitrogen, Carlsbad, Calif.) was added to the cells. Cells were incubated for 40 minutes at room temperature in the dark. Following the incubation, the cells were washed and 30 μL assay buffer containing 2.5 μM DiSBAC2(3) substrate (Invitrogen, Carlsbad, Calif.) and 0.5 mM VABSC-1 (Invitrogen, Carlsbad, Calif.) was added to the cells. The cells were incubated for 60 minutes at room temperature in the dark. Fluorescence readings were made using a FLIPR®^TETRA (Molecular Devices, Sunnyvale Calif.) equipped with voltage-sensor probe optics. The depolarizing agent, veratridine (Sigma-Aldrich, St. Louis, Mo.), was made up at 3× concentrations in assay buffer containing 1 mg/mL scorpion venom (SVqq, from Leiurus quinquestriatus; Sigma-Aldrich, St. Louis, Mo.). The assay agonist/opener concentration was determined each day using a 6-point veratridine concentration curve in duplicate, tested with three concentrations of tetracaine (0.1, 0.06, 0.01 μM all in 0.03% dimethyl sulfoxide) and 0.03% dimethyl sulfoxide control in assay buffer. […] Test compounds in the daughter plate were diluted to (˜3×) solutions in assay buffer immediately before assaying. Using the FLIPR®^TETRA, 20 μL of the (3×) compound solutions were first added to the cells, then 20 μL of depolarizing solution (3×EC80 veratridine+SVqq) were added 3 minutes later to activate the channel. Changes in fluorescence were measured at wavelengths of 440-480 nm and 565-625 nm over the course of the experimental run. Membrane depolarization was expressed as a ratio of the maximum F440-480 nm/F565-625 nm reading above average baseline F440-480 nm/F565-625 nm reading. IC50 values were calculated from curve fits of the ratio data using a four-parameter logistic Hill equation (Accelrys Assay Explorer 3.3 Client, Accelrys, San Diego, Calif.) with percent inhibition plotted against compound concentration.

Sequence of human Nav1.7 (Q15858 whole entry): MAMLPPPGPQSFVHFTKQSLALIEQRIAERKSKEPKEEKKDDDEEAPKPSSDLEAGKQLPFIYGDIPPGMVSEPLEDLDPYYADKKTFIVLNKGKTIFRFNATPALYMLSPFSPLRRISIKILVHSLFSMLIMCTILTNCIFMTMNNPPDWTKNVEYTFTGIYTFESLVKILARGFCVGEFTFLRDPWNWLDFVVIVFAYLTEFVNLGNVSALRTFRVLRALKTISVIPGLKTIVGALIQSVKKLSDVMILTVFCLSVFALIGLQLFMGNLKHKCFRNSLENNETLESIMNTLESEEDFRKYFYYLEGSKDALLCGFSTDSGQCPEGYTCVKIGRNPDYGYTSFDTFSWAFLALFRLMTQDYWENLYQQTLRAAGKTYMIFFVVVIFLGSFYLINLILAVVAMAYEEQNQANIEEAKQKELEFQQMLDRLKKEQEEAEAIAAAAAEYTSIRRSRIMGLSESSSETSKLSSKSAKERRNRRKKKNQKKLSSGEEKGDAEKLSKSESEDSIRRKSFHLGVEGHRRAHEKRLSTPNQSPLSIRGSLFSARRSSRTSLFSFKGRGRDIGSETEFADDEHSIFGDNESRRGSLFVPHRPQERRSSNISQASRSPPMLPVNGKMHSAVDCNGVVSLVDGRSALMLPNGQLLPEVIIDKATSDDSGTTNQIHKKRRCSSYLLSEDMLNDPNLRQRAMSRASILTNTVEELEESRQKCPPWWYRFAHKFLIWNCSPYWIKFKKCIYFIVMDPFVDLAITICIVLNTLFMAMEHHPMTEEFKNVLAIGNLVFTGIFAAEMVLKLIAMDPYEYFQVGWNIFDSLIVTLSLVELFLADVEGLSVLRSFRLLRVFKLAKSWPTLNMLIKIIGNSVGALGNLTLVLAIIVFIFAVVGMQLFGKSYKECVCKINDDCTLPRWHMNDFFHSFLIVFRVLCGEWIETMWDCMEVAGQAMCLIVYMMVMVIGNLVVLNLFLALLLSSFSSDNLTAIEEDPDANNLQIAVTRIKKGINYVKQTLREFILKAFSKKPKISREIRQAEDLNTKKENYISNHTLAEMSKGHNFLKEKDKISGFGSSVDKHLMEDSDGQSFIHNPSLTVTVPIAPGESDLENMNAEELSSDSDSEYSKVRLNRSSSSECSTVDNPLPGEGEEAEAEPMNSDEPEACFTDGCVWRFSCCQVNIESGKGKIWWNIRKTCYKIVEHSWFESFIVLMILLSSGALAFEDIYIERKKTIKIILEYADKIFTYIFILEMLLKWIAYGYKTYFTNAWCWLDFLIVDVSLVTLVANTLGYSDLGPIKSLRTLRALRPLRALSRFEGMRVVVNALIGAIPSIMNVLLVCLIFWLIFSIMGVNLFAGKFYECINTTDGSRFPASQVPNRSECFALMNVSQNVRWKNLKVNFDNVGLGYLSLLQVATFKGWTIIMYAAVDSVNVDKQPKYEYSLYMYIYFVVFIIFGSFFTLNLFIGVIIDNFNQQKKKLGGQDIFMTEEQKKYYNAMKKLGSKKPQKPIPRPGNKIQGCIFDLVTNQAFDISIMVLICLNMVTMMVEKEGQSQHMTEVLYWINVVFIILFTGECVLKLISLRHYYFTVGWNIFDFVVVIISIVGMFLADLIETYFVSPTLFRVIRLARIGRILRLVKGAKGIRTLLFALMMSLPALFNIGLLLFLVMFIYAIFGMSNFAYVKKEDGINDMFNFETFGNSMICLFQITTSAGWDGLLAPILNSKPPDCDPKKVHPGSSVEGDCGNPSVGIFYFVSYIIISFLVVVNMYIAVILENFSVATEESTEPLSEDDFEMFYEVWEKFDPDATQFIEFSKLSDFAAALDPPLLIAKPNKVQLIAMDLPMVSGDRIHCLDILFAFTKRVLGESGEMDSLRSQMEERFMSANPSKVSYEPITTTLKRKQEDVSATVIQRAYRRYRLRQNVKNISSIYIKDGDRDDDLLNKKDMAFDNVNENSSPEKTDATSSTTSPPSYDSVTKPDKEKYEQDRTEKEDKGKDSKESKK
Sequence of human Nav1.8 (Q9Y5Y9 whole entry): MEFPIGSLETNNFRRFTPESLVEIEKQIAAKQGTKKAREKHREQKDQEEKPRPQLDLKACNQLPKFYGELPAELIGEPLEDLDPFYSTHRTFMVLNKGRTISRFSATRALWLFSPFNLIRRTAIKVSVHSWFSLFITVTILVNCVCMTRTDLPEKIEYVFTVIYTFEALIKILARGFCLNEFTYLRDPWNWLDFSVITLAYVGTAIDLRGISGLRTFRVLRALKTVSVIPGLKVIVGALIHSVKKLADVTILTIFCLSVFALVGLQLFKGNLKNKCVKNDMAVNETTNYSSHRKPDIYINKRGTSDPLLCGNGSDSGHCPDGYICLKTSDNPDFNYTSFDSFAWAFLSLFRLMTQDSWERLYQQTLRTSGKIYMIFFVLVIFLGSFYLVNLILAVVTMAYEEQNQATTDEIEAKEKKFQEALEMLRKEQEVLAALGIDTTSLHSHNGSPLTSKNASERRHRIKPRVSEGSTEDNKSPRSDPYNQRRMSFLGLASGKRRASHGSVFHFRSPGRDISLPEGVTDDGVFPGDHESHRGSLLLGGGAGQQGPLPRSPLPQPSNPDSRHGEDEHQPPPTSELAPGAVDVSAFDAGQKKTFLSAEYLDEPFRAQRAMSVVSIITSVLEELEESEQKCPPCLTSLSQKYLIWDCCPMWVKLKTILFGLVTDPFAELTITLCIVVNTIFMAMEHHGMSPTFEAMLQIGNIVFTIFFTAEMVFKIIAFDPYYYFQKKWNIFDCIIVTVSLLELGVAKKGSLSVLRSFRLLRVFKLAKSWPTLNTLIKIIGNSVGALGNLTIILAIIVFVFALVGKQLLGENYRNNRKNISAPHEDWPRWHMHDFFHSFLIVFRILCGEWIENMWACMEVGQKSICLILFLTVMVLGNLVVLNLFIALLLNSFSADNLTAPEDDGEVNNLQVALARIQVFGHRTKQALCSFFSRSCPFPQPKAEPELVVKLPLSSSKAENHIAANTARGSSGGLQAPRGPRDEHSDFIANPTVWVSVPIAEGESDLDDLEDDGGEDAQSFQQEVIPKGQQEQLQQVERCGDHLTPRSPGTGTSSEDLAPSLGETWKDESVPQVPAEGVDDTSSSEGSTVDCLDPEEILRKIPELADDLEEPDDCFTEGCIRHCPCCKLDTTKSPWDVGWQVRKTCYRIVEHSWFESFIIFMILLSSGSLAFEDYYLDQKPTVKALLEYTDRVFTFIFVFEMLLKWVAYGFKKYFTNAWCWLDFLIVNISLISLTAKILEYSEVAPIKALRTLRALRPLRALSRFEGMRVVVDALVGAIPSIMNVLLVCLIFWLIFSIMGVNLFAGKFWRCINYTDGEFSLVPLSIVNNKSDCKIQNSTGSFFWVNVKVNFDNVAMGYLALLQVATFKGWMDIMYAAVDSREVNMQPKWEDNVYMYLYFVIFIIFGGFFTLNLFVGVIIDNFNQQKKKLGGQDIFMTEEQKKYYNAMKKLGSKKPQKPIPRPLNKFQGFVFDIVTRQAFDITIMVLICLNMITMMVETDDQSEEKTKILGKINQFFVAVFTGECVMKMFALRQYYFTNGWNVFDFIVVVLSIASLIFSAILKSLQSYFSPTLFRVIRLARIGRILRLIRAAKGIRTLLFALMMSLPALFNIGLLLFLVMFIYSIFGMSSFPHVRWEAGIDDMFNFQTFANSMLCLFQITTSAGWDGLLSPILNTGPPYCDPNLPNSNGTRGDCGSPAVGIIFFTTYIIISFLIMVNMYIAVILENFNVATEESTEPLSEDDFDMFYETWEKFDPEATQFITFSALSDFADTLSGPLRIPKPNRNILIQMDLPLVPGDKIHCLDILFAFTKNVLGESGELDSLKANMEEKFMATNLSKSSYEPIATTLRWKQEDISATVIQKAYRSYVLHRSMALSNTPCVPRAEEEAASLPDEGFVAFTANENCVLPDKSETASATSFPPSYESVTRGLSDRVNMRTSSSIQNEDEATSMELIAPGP

SMILES	IC50 (human Nav1.7)	IC50 (human Nav1.8)
O=C(CN1CCN(c2cccc3c2cnn3-c2ccccc2F)C1=O)NC1(C(F)(F)F)CCC1 [Example 353, 2-{3-[1-(2-fluorophenyl)-1H-indazol-4-yl]-2-oxoimidazolidin-1-yl}-N-[1-(trifluoromethyl)cyclobutyl]acetamide]	3310 nM	1690 nM
CC(=O)C1CN(C(=O)CN2CCN(c3cccc4c3cnn4-c3ccccc3F)C2=O)C1 [Example 325, 1-[2-(3-acetylazetidin-1-yl)-2-oxoethyl]-3-[1-(2-fluorophenyl)-1H-indazol-4-yl]imidazolidin-2-one]	3120 nM	3860 nM
O=C1CCN(C(=O)CN2CCN(c3cccc4c3cnn4-c3ccccc3F)C2=O)C1 [Example 302, 1-[1-(2-fluorophenyl)-1H-indazol-4-yl]-3-[2-oxo-2-(3-oxopyrrolidin-1-yl)ethyl]imidazolidin-2-one]	20000 nM	7180 nM
CC(C)COC1COCC1N1CCN(c2cccc3c2cnn3-c2ccccc2F)C1=O (centres unmarked) [Example 336, 1-[1-(2-fluorophenyl)-1H-indazol-4-yl]-3-(4-isobutoxytetrahydrofuran-3-yl)imidazolidin-2-one]	2140 nM	867 nM
CO[C@H]1C[C@H](NC(=O)CN2CCN(c3cccc4c3cnn4-c3ccccc3F)C2=O)C1 [Example 326, 2-{3-[1-(2-fluorophenyl)-1H-indazol-4-yl]-2-oxoimidazolidin-1-yl}-N-(trans-3-methoxycyclobutyl)acetamide]	–	5250 nM
CN1CCN(c2cccc3c2cnn3-c2ccccc2F)C1=O [Example 344, 1-[1-(2-fluorophenyl)-1H-indazol-4-yl]-3-methylimidazolidin-2-one]	–	7380 nM
O=C1N(c2cccc3c2cnn3-c2ccccc2F)CCN1[C@@H]1CCCC[C@H]1OCc1ccccc1 [Example 272, 1-[(1R,2R)-2-(benzyloxy)cyclohexyl]-3-[1-(2-fluorophenyl)-1H-indazol-4-yl]imidazolidin-2-one]	338 nM	–
CC1(C)CC1NC(=O)CN1CCN(c2cccc3c2cnn3-c2ccccc2F)C1=O (centres unmarked) [Example 328, N-(2,2-dimethylcyclopropyl)-2-{3-[1-(2-fluorophenyl)-1H-indazol-4-yl]-2-oxoimidazolidin-1-yl}acetamide]	3020 nM	–
O=C1N(Cc2cocn2)CCN1c1cccc2c1cnn2-c1ccc(C(F)(F)F)cc1 [Example 242, 1-(1,3-oxazol-4-ylmethyl)-3-{1-[4-(trifluoromethyl)phenyl]-1H-indazol-4-yl}imidazolidin-2-one]	3330 nM	–
Cc1cc(CN2CCN(c3cccc4c3cnn4-c3ccccc3F)C2=O)on1 [Example 244, 1-[1-(2-fluorophenyl)-1H-indazol-4-yl]-3-[(3-methyl-1,2-oxazol-5-yl)methyl]imidazolidin-2-one]	3080 nM	–
O=C1N(CC2CC2(F)F)CCN1c1cccc2c1cnn2-c1ccccc1F (centres unmarked) [Example 189, 1-[(2,2-difluorocyclopropyl)methyl]-3-[1-(2-fluorophenyl)-1H-indazol-4-yl]imidazolidin-2-one]	1020 nM	–
CC(=O)N1CC(CN2CCN(c3cccc4c3cnn4-c3ccccc3F)C2=O)C1 [Example 216, 1-[(1-acetylazetidin-3-yl)methyl]-3-[1-(2-fluorophenyl)-1H-indazol-4-yl]imidazolidin-2-one]	20000 nM	–
O=C1N(CC(=O)N2CCCC2c2ccccc2)CCN1c1cccc2c1cnn2-c1ccccc1F (centres unmarked) [Example 129, 1-[1-(2-fluorophenyl)-1H-indazol-4-yl]-3-[2-oxo-2-(2-phenylpyrrolidin-1-yl)ethyl]imidazolidin-2-one]	403 nM	–
O=C(CC1CCCC1)CN1CCN(c2cccc3c2cnn3-c2ccccc2F)C1=O [Example 134, 1-(3-cyclopentyl-2-oxopropyl)-3-[1-(2-fluorophenyl)-1H-indazol-4-yl]imidazolidin-2-one]	1260 nM	–
O=C1N(c2cccc3c2cnn3-c2ccccc2F)CCN1[C@H]1CO[C@H](c2cccc(F)c2)C1 [Example 196, 1-[1-(2-fluorophenyl)-1H-indazol-4-yl]-3-[(3R,5S)-5-(3-fluorophenyl)tetrahydrofuran-3-yl]imidazolidin-2-one]	4310 nM	–
Cc1nnc(CN2CCCN(c3cccc4c3cnn4-c3ccccc3F)C2=O)o1 [Example 260, 1-[1-(2-fluorophenyl)-1H-indazol-4-yl]-3-[(5-methyl-1,3,4-oxadiazol-2-yl)methyl]tetrahydropyrimidin-2(1H)-one]	20000 nM	–
NC(=O)C(=O)N1CC(N2CCN(c3cccc4c3cnn4-c3ccccc3F)C2=O)C1 [Example 270, 2-(3-{3-[1-(2-fluorophenyl)-1H-indazol-4-yl]-2-oxoimidazolidin-1-yl}azetidin-1-yl)-2-oxoacetamide]	5870 nM	–
O=C1N(c2cccc3c2cnn3-c2ccccc2F)CCN1S(=O)(=O)C1CCCCC1 [Example 78, 1-(cyclohexylsulfonyl)-3-[1-(2-fluorophenyl)-1H-indazol-4-yl]imidazolidin-2-one]	2940 nM	–
O=C1N(CC(=O)N2CC3C[C@@H]4CC2C[C@H](C3)C4)CCN1c1cccc2c1cnn2-c1ccccc1F [Example 107, 1-{2-[(1R,3r,6s,8S)-4-azatricyclo[4.3.1.1^3,8]undec-4-yl]-2-oxoethyl}-3-[1-(2-fluorophenyl)-1H-indazol-4-yl]imidazolidin-2-one]	1280 nM	–
O=C(CN1CCN(c2cccc3c2cnn3-c2ccccc2F)C1=O)c1ccc(F)nc1 [Example 147, 1-[1-(2-fluorophenyl)-1H-indazol-4-yl]-3-[2-(6-fluoropyridin-3-yl)-2-oxoethyl]imidazolidin-2-one]	1050 nM	–
O=C(CC1CC2CCC1C2)CN1CCN(c2cccc3c2cnn3-c2ccccc2F)C1=O (centres unmarked) [Example 142, 1-[3-(bicyclo[2.2.1]hept-2-yl)-2-oxopropyl]-3-[1-(2-fluorophenyl)-1H-indazol-4-yl]imidazolidin-2-one]	2000 nM	–
CC(C)CCC(=O)N1CCN(c2cccc3c2cnn3-c2ccccc2F)C1=O [Example 76, 1-[1-(2-fluorophenyl)-1H-indazol-4-yl]-3-(4-methylpentanoyl)imidazolidin-2-one]	2290 nM	–
O=C1N(Cc2cc(F)ccc2F)CCN1c1cccc2c1cnn2-c1ccccc1F [Example 197, 1-(2,5-difluorobenzyl)-3-[1-(2-fluorophenyl)-1H-indazol-4-yl]imidazolidin-2-one]	2140 nM	–
O=C(CN1CCN(c2cccc3c2cnn3-c2ccccc2F)C1=O)C1CC1 [Example 183, 1-(2-cyclopropyl-2-oxoethyl)-3-[1-(2-fluorophenyl)-1H-indazol-4-yl]imidazolidin-2-one]	2930 nM	–
O=C(OC1CCCC1)N1CCN2C(=O)N(c3cccc4c3cnn4-c3ccccc3F)CC2C1 (centres unmarked) [Example 137, cyclopentyl 2-[1-(2-fluorophenyl)-1H-indazol-4-yl]-3-oxohexahydroimidazo[1,5-a]pyrazine-7(1H)-carboxylate]	2300 nM	–
CC(C)CC1CCCN1C(=O)CN1CCN(c2cccc3c2cnn3-c2ccccc2F)C1=O (centres unmarked) [Example 117, 1-[1-(2-fluorophenyl)-1H-indazol-4-yl]-3-[2-(2-isobutylpyrrolidin-1-yl)-2-oxoethyl]imidazolidin-2-one]	1790 nM	–
O=C1N(Cc2cccnc2)CCN1c1cccc2c1cnn2-c1ccccc1F [Example 198, 1-[1-(2-fluorophenyl)-1H-indazol-4-yl]-3-(pyridin-3-ylmethyl)imidazolidin-2-one]	1240 nM	–
COCc1nc(CN2CCN(c3cccc4c3cnn4-c3ccccc3F)C2=O)cs1 [Example 254, 1-[1-(2-fluorophenyl)-1H-indazol-4-yl]-3-{[2-(methoxymethyl)-1,3-thiazol-4-yl]methyl}imidazolidin-2-one]	825 nM	–
